For 30 molecules, IC50 results are on record in US8741899B2, “(4-chloro-2-fluoro-N-(2-fluorophenyl)-5-[(8aR)-hexahydropyrrolo-[1,2-a]pyrazin-2(1H)-ylcarbonyl]-benzenesulfonamide, and pharmaceutically acceptable salts thereof” (AbbVie Inc., priority 2009, dated 2014).

For this assay, the target named is T1, Human Cav3.2 Channels (Homo sapiens, UniProt O95180).
T1 construct: expressed in transfected cells
T1 sequence (O95180 whole entry): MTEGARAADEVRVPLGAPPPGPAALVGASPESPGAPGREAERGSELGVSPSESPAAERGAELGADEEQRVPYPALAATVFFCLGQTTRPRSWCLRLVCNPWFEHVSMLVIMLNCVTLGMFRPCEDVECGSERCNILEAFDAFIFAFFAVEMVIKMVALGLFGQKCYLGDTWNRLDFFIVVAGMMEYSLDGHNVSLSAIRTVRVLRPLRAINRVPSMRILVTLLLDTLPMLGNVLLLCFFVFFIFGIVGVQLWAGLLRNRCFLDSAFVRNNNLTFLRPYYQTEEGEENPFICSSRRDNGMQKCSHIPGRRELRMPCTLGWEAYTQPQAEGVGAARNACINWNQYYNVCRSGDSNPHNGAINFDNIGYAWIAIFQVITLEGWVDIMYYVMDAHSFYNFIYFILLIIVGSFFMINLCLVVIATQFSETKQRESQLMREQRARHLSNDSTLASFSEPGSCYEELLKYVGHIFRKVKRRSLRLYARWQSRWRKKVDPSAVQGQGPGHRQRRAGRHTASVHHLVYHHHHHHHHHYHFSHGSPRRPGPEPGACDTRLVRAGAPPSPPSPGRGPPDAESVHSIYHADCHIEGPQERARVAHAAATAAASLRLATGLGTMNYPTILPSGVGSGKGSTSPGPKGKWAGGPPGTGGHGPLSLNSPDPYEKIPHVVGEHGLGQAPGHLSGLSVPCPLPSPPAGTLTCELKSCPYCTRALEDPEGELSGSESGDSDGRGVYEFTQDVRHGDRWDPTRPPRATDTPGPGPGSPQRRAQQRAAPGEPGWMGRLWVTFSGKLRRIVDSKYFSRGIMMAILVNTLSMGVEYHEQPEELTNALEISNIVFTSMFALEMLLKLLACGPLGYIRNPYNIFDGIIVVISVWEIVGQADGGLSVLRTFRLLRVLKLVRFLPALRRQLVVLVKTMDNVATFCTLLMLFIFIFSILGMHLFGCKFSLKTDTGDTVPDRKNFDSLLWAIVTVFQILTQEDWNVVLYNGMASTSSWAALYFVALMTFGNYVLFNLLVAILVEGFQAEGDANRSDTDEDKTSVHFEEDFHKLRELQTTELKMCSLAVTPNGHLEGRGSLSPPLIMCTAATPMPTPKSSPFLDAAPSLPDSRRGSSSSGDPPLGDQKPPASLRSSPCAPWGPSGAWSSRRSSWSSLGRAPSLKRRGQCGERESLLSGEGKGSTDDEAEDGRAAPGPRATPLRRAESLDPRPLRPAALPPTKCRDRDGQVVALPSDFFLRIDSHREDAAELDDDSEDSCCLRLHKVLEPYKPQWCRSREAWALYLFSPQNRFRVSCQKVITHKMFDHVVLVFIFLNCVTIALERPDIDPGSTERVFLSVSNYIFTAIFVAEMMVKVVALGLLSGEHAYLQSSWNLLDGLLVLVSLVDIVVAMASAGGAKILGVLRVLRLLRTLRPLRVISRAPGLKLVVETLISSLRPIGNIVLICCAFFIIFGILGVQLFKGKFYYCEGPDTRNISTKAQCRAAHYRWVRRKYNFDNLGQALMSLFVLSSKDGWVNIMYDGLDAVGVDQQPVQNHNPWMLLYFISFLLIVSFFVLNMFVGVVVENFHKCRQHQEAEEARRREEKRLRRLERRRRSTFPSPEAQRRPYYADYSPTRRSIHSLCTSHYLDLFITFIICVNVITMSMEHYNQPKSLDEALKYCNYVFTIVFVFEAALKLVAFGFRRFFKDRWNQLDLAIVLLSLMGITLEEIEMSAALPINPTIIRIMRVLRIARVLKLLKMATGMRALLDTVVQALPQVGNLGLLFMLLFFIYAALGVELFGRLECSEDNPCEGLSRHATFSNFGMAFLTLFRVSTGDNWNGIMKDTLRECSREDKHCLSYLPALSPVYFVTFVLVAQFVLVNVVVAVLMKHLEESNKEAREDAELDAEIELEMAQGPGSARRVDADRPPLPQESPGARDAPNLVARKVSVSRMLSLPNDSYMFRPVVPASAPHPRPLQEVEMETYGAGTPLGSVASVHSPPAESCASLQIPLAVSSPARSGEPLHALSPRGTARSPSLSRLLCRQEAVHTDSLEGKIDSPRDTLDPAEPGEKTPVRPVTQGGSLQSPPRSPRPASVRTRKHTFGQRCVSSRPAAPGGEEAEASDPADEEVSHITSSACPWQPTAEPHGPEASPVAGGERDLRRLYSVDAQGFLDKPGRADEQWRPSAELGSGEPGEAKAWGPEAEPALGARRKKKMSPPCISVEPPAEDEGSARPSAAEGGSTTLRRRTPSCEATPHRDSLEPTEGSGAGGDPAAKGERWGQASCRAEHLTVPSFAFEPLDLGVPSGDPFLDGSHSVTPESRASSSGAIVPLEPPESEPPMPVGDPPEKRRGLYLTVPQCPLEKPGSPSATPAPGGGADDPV
Briefly: Electrophysiologic (whole-cell patch-clamp) assessment of calcium channel activity in HEK293 cells stably expressing hCav3.2. The class given is cell-based. The settings on record: −77 mV, geometric mean, read-out: Human Cav3.2 −77 mV IC50 (μM) GeoMean. Here is the method: (i) In Vitro Methods—Electrophysiologic Assessment of Calcium Channel Activity:
Patch-clamp recordings were performed using HEK293 cells stably expressing hCav3.2. Cells were plated in T175 flasks and grown at 37° C. and under 5% CO2 to approximately 50% confluency. On the day of the experiment, cells were harvested with Detachin™ cell detachment solution (Genlantis, San Diego, Calif.) and maintained in serum-free culture medium supplemented with 25 mM HEPES up to several hours prior to experiment. Whole-cell patch-clamp recordings were obtained using extracellular saline consisting of (mM): 87.5 CsCl, 40 TEA-Cl, 5 CaCl2, 1 MgCl2, 10 HEPES, 10 glucose. The pH was adjusted to 7.2 with CsOH and the osmolarity was adjusted to approximately 310 mOsm with sucrose. Intracellular solution consisted of (mM): 112 CsCl, 27 CsF, 2 NaCl, 8.2 EGTA, 10 HEPES. Prior to an experiment 4 mM Mg2ATP was added and the pH was adjusted to 7.2 with CsOH with an osmolarity of approximately 290 mOsm. A two-pulse voltage protocol was utilized to assess compound inhibition. First, cells were held with an 8 s pre-pulse at −100 mV prior to a 160 ms test pulse to −30 mV. This was followed by an 8 s pre-pulse at approximately −75 mV prior to a […]. Increasing concentrations of antagonist were applied to individual cells in a multi-addition format with 5 minutes in each test concentration. For each cell, responses were normalized to dimethyl sulfoxide vehicle control to generate concentration-response curves.
For orientation: Patch clamp records ionic current or voltage across a cell membrane.
The IC50 is the concentration needed to halve the response being measured. For `O=C(c1cccc(S(=O)(=O)Nc2ccc(C(F)(F)F)cc2)c1)N1CCN2CCC[C@@H]2C1` [Example 1, 3-[(8aR)-hexahydropyrrolo[1,2-a]pyrazin-2(1H)-ylcarbonyl]-N-[4-(trifluoromethyl)phenyl]benzenesulfonamide], the IC50 is more than 10 µM. Then `O=C(c1cccc(S(=O)(=O)Nc2c(F)cccc2F)c1)N1CCN2CCC[C@H]2C1` [Example 4, N-(2,6-difluorophenyl)-3-[(8aS)-hexahydropyrrolo[1,2-a]pyrazin-2(1H)-ylcarbonyl]benzenesulfonamide], with 7.7 µM. Regarding `O=C(c1cccc(S(=O)(=O)Nc2ccc(F)cc2)c1)N1CCN2CCC[C@H]2C1` [Example 5, N-(4-fluorophenyl)-3-[(8aS)-hexahydropyrrolo[1,2-a]pyrazin-2(1H)-ylcarbonyl]benzenesulfonamide], the IC50 amounted to 1.8 µM. In the case of `O=C(c1cccc(S(=O)(=O)Nc2cccc(C(F)(F)F)c2)c1)N1CCN2CCC[C@H]2C1` [Example 6, 3-[(8aS)-hexahydropyrrolo[1,2-a]pyrazin-2(1H)-ylcarbonyl]-N-[3-(trifluoromethyl)phenyl]benzenesulfonamide] it was 1.9 µM; in that of `O=C(c1cccc(S(=O)(=O)Nc2cccc(F)c2)c1)N1CCN2CCC[C@@H]2C1` [Example 7, N-(3-fluorophenyl)-3-[(8aR)-hexahydropyrrolo[1,2-a]pyrazin-2(1H)-ylcarbonyl]benzenesulfonamide], 6.5 µM. As to `O=C(c1cccc(S(=O)(=O)Nc2ccc(C(F)(F)F)cc2)c1)N1CCN2CCC[C@H]2C1` [Example 8, 3-[(8aS)-hexahydropyrrolo[1,2-a]pyrazin-2(1H)-ylcarbonyl]-N-[4-(trifluoromethyl)phenyl]benzenesulfonamide], the half-maximal inhibitory concentration (IC50) came out at 2.1 µM.

For `O=C(c1cccc(S(=O)(=O)Nc2ccccc2Cl)c1)N1CCN2CCC[C@@H]2C1` [Example 9, N-(2-chlorophenyl)-3-[(8aR)-hexahydropyrrolo[1,2-a]pyrazin-2(1H)-ylcarbonyl]benzenesulfonamide], the IC50 came to 7.3 µM. On to `O=C(c1cccc(S(=O)(=O)Nc2ccccc2Cl)c1)N1CCN2CCC[C@H]2C1` [Example 10, N-(2-chlorophenyl)-3-[(8aS)-hexahydropyrrolo[1,2-a]pyrazin-2(1H)-ylcarbonyl]benzenesulfonamide], for which the half-inhibitory concentration (IC50) amounted to 1.5 µM.

In the case of `O=C(c1cccc(S(=O)(=O)Nc2cccc(F)c2F)c1)N1CCN2CCC[C@H]2C1` [Example 11, N-(2,3-difluorophenyl)-3-[(8aS)-hexahydropyrrolo[1,2-a]pyrazin-2(1H)-ylcarbonyl]benzenesulfonamide], the IC50 worked out at 6.6 µM. Then `O=C(c1cccc(S(=O)(=O)Nc2cc(F)ccc2F)c1)N1CCN2CCC[C@H]2C1` [Example 12, N-(2,5-difluorophenyl)-3-[(8aS)-hexahydropyrrolo[1,2-a]pyrazin-2(1H)-ylcarbonyl]benzenesulfonamide], with 4.7 µM; and `O=C(c1cccc(S(=O)(=O)Nc2cccc(F)c2F)c1)N1CCN2CCC[C@@H]2C1` [Example 14, N-(2,3-difluorophenyl)-3-[(8aR)-hexahydropyrrolo[1,2-a]pyrazin-2(1H)-ylcarbonyl]benzenesulfonamide], with 3.7 µM; and `O=C(c1cccc(S(=O)(=O)Nc2cc(F)ccc2F)c1)N1CCN2CCC[C@@H]2C1` [Example 15, N-(2,5-difluorophenyl)-3-[(8aR)-hexahydropyrrolo[1,2-a]pyrazin-2(1H)-ylcarbonyl]benzenesulfonamide], with more than 10 µM. In the case of `O=C(c1cccc(S(=O)(=O)Nc2ccc(F)cc2F)c1)N1CCN2CCC[C@H]2C1` [Example 16, N-(2,4-difluorophenyl)-3-[(8aS)-hexahydropyrrolo[1,2-a]pyrazin-2(1H)-ylcarbonyl]benzenesulfonamide] it was 6 µM. Then `O=C(c1cccc(S(=O)(=O)Nc2ccccc2F)c1)N1CCN2CCC[C@H]2C1` [Example 17, N-(2-fluorophenyl)-3-[(8aS)-hexahydropyrrolo[1,2-a]pyrazin-2(1H)-ylcarbonyl]benzenesulfonamide], with more than 10 µM. On to `O=C(c1cccc(S(=O)(=O)Nc2ccc(F)cc2F)c1)N1CCN2CCC[C@@H]2C1` [Example 18, N-(2,4-difluorophenyl)-3-[(8aR)-hexahydropyrrolo[1,2-a]pyrazin-2(1H)-ylcarbonyl]benzenesulfonamide], for which the IC50 was 9.3 µM. In the case of `O=C(c1cccc(S(=O)(=O)Nc2ccccc2C(F)(F)F)c1)N1CCN2CCC[C@H]2C1` [Example 19, 3-[(8aS)-hexahydropyrrolo[1,2-a]pyrazin-2(1H)-ylcarbonyl]-N-[2-(trifluoromethyl)phenyl]benzenesulfonamide] it was 2.4 µM; in that of `O=C(c1cccc(S(=O)(=O)Nc2cccc(Cl)c2)c1)N1CCN2CCC[C@H]2C1` [Example 21, N-(3-chlorophenyl)-3-[(8aS)-hexahydropyrrolo[1,2-a]pyrazin-2(1H)-ylcarbonyl]benzenesulfonamide], 5.9 µM; in that of `O=C(c1cccc(S(=O)(=O)N2CCN(C(c3ccc(F)cc3)c3ccc(F)cc3)CC2)c1)N1CCN2CCC[C@@H]2C1` [Example 22, (8aR)-2-[3-({4-[bis(4-fluorophenyl)methyl]piperazin-1-yl}sulfonyl)benzoyl]octahydropyrrolo[1,2-a]pyrazine], 1.4 µM.

In the case of `O=C(c1cccc(S(=O)(=O)N2CCN(C(c3ccc(F)cc3)c3ccc(F)cc3)CC2)c1)N1CCN2CCC[C@H]2C1` [Example 23, (8aS)-2-[3-({4-[bis(4-fluorophenyl)methyl]piperazin-1-yl}sulfonyl)benzoyl]octahydropyrrolo[1,2-a]pyrazine], the half-inhibitory concentration (IC50) came out at 2.5 µM. For the molecule `O=C(c1cccc(S(=O)(=O)N2CCN(C(c3ccccc3)c3ccccc3)CC2)c1)N1CCN2CCC[C@@H]2C1` [Example 24, (8aR)-2-{3-[(4-benzhydrylpiperazin-1-yl)sulfonyl]benzoyl}octahydropyrrolo[1,2-a]pyrazine], the IC50 came to 1 µM. On to `O=C(c1cccc(S(=O)(=O)Nc2cccc(Cl)c2)c1)N1CCN2CCC[C@@H]2C1` [Example 25, N-(3-chlorophenyl)-3-[(8aR)-hexahydropyrrolo[1,2-a]pyrazin-2(1H)-ylcarbonyl]benzenesulfonamide], for which the IC50 was 8.9 µM. On to `O=C(c1cccc(S(=O)(=O)NCC(c2ccccc2)c2ccccc2)c1)N1CCN2CCC[C@@H]2C1` [Example 26, N-(2,2-diphenylethyl)-3-[(8aR)-hexahydropyrrolo[1,2-a]pyrazin-2(1H)-ylcarbonyl]benzenesulfonamide], for which the IC50 turned out to be 1.5 µM. `O=C(c1cccc(S(=O)(=O)Nc2ccccc2C(F)(F)F)c1)N1CCN2CCC[C@@H]2C1` [Example 27, 3-[(8aR)-hexahydropyrrolo[1,2-a]pyrazin-2(1H)-ylcarbonyl]-N-[2-(trifluoromethyl)phenyl]benzenesulfonamide]: the IC50 was more than 10 µM.

As for `O=C(c1cccc(S(=O)(=O)N2CCN(C(c3ccccc3)c3ccccc3)CC2)c1)N1CCN2CCC[C@H]2C1` [Example 28, (8aS)-2-{3-[(4-benzhydrylpiperazin-1-yl)sulfonyl]benzoyl}octahydropyrrolo[1,2-a]pyrazine], the IC50 was 1.9 µM. In the case of `O=C(c1cccc(S(=O)(=O)NCCC(c2ccccc2)c2ccccc2)c1)N1CCN2CCC[C@@H]2C1` [Example 29, N-(3,3-diphenylpropyl)-3-[(8aR)-hexahydropyrrolo[1,2-a]pyrazin-2(1H)-ylcarbonyl]benzenesulfonamide] it was 2.1 µM; in that of `O=C(c1cccc(S(=O)(=O)NCCC(c2ccccc2)c2ccccc2)c1)N1CCN2CCC[C@H]2C1` [Example 30, N-(3,3-diphenylpropyl)-3-[(8aS)-hexahydropyrrolo[1,2-a]pyrazin-2(1H)-ylcarbonyl]benzenesulfonamide], 1.8 µM.

Turning to `O=C(c1cccc(S(=O)(=O)NCC(c2ccccc2)c2ccccc2)c1)N1CCN2CCC[C@H]2C1` [Example 31, N-(2,2-diphenylethyl)-3-[(8aS)-hexahydropyrrolo[1,2-a]pyrazin-2(1H)-ylcarbonyl]benzenesulfonamide], the 50% inhibitory concentration (IC50) is 3.3 µM. On to `O=C(c1cc(S(=O)(=O)Nc2ccc(C(F)(F)F)cc2)ccc1Cl)N1CCN2CCC[C@@H]2C1` [Example 32, 4-chloro-3-[(8aR)-hexahydropyrrolo[1,2-a]pyrazin-2(1H)-ylcarbonyl]-N-[4-(trifluoromethyl)phenyl]benzenesulfonamide], for which the IC50 worked out at 8.4 µM. Then `O=C(c1cccc(S(=O)(=O)NCCc2ccc(F)cc2)c1)N1CCN2CCC[C@H]2C1` [Example 33, N-[2-(4-fluorophenyl)ethyl]-3-[(8aS)-hexahydropyrrolo[1,2-a]pyrazin-2(1H)-ylcarbonyl]benzenesulfonamide], with 5.7 µM; and `O=C(c1ccc(Cl)c(S(=O)(=O)Nc2ccc(C(F)(F)F)cc2)c1)N1CCN2CCC[C@@H]2C1` [Example 34, 2-chloro-5-[(8aR)-hexahydropyrrolo[1,2-a]pyrazin-2(1H)-ylcarbonyl]-N-[4-(trifluoromethyl)phenyl]benzenesulfonamide], with 6.2 µM.
